According to patent US7034035B2, “Fungicidal mono-, bi-, and tri-cycloheteroalkyl amides and their compositions, methods of use and preparation” (priority 1999, dated 2006):

Columns and labels:
[1] = test system: Rhizoctonia solani (RHIZSO); assay: microbe, parasite or virus in culture; format: cell-based
[2] = test system: Ustilago maydis (USTIMA); assay: microbe, parasite or virus in culture; format: cell-based
Further: test concentration or dose not given here.

Structure (SMILES)	RHIZSO in vitro Growth Inhibition [1]	USTIMA in vitro Growth Inhibition [2]
COc1ccnc(C(=O)NC2CC(c3ccco3)CC(C)(C)C2)c1O (stereo not shown) [Compound 258]	− (key: +: at least 80% growth inhibition; −: less than 80% growth inhibition)	− (key: +: at least 80% growth inhibition; −: less than 80% growth inhibition)
O=C(Nc1nccs1)c1ncccc1O [Compound 235]	+ (key: +: at least 80% growth inhibition; −: less than 80% growth inhibition)	+ (key: +: at least 80% growth inhibition; −: less than 80% growth inhibition)
COc1ccnc(C(=O)NC2COC(C)C2)c1O (stereo not shown) [Compound 310]	− (key: +: at least 80% growth inhibition; −: less than 80% growth inhibition)	− (key: +: at least 80% growth inhibition; −: less than 80% growth inhibition)
COc1ccnc(C(=O)N[C@@H](CO)C(=O)O[C@@H](C)[C@H](OC(=O)C(C)C)[C@@H](Cc2ccccc2)C(=O)O)c1O [Compound 341]	− (key: +: at least 80% growth inhibition; −: less than 80% growth inhibition)	− (key: +: at least 80% growth inhibition; −: less than 80% growth inhibition)
O=C(NCc1ccccc1Cl)c1ncccc1O [Compound 218]	+ (key: +: at least 80% growth inhibition; −: less than 80% growth inhibition)	+ (key: +: at least 80% growth inhibition; −: less than 80% growth inhibition)
COc1ccnc(C(=O)N[C@H]2CO[C@@](C)(C(C)CC3=C(C)CCCC3(C)C)OC2)c1O (stereo partly shown) [Compound 318]	+ (key: +: at least 80% growth inhibition; −: less than 80% growth inhibition)	− (key: +: at least 80% growth inhibition; −: less than 80% growth inhibition)
COc1cccc(CNC(=O)c2ncccc2O)c1OC [Compound 227]	− (key: +: at least 80% growth inhibition; −: less than 80% growth inhibition)	− (key: +: at least 80% growth inhibition; −: less than 80% growth inhibition)
Cc1cc(C)cc(NC(=O)c2ncccc2O)c1 [Compound 215]	− (key: +: at least 80% growth inhibition; −: less than 80% growth inhibition)	− (key: +: at least 80% growth inhibition; −: less than 80% growth inhibition)
O=C(NC1CCC(O)CC1)c1ncccc1O (stereo not shown) [Compound 208]	− (key: +: at least 80% growth inhibition; −: less than 80% growth inhibition)	− (key: +: at least 80% growth inhibition; −: less than 80% growth inhibition)
C[C@@H](NC(=O)c1ncccc1O)c1cccc2ccccc12 [Compound 231]	− (key: +: at least 80% growth inhibition; −: less than 80% growth inhibition)	− (key: +: at least 80% growth inhibition; −: less than 80% growth inhibition)
COc1ccnc(C(=O)NC2C[C@H](C)O[C@@](C)(Cc3ccccc3)C2)c1O (stereo partly shown) [Compound 312]	− (key: +: at least 80% growth inhibition; −: less than 80% growth inhibition)	− (key: +: at least 80% growth inhibition; −: less than 80% growth inhibition)
Cc1ccc(CNC(=O)c2ncccc2O)cc1 [Compound 223]	− (key: +: at least 80% growth inhibition; −: less than 80% growth inhibition)	+ (key: +: at least 80% growth inhibition; −: less than 80% growth inhibition)
COc1ccnc(C(=O)NC2CC(C)(C)C(OC(=O)c3ccccc3)C(C)(C)C2)c1O (stereo not shown) [Compound 268]	− (key: +: at least 80% growth inhibition; −: less than 80% growth inhibition)	− (key: +: at least 80% growth inhibition; −: less than 80% growth inhibition)
COc1ccnc(C(=O)N[C@H]2CC[C@@H](Oc3ccc(C(F)(F)F)cc3)CC2)c1O [Compound 271]	+ (key: +: at least 80% growth inhibition; −: less than 80% growth inhibition)	+ (key: +: at least 80% growth inhibition; −: less than 80% growth inhibition)
